The results in this text go back to US20180339053A1, “USE OF 1,2-DICARBOXYLIC ACID MONOAMIDE POLYMER AS SYNERGIST FOR CHEMOTHERAPY” (Nankai University, priority 2017, published 2018).

The subject of one series is HepG2 cells. Description: Cytotoxicity experiment (MTS) of polymer and anti-cancer drug on HepG2 cells. Format: cell-based, human. The note with it: for viability at 4 µg/mL / viability at 5 µg/mL: Homo sapiens; for viability at 5 µg/mL: read-out: Cell Viability (%) Taxol. As for the experimental part:
(§1) A suspension of HepG2 cells diluted in 100 μL of a complete medium (a RPMI-1640 medium containing 10% fetal bovine serum and 1% penneillin/streptomycin) was added into a 96-well plate at a concentration of 5×10^3 cells per well, cultivated at 37 degrees Celsius for 24 hours. […] The solution was then aspirated, added with 100 μL of fresh complete medium and incubated continually for 24 hours. The culture medium was aspirated, added with 80 μL PBS solution and 20 μL cell proliferation reagent MTS, incubated at 37 degrees Celsius for 1 hour, and then measured with a microplate reader at 490 nm for absorbance.
This embodiment is an in vitro cell experiment of the effect of a polyallylamine-2,3-dimethyl maleic anhydride modifier with a molecular weight of 15,000 (PAA15K-DMA) for promoting the toxicity of different chemotherapeutic drugs on non-resistant HepG2 cells. According to the method described in Embodiment 4, the concentration of PAA15K-DMA was 25 μg/mL, and the obtained data was shown in Table 1.
This embodiment is an in vitro cell experiment of the effect of a polyallylamine-cyclohexene-1,2-dicarboxylic acid modifier with a molecular weight of 200,000 (PAA200K-TPA) for promoting the toxicity of different chemotherapeutic drugs on non-resistant HepG2 cells. According to the method described in Embodiment 4, the concentration of PAA200K-TPA was 25 μg/mL, and the obtained data was shown in Table 1 and FIG. 1.
as §1, with “804” for “80 μL”
This embodiment is an in vitro cell experiment of the effect of a linear polyethylenimine-cyclohexene-1,2-dicarboxylic acid modifier with a molecular weight of 10,000 (LPEI10K-TPA) for promoting the toxicity of different chemotherapeutic drugs on non-resistant HepG2 cells. According to the method described in Embodiment 10, the concentration of LPEI10K-TPA was 15 μg/mL, and the obtained data was shown in Table 1.
This embodiment is an in vitro cell experiment of the effect of a branched polyethyleneimine-1-methyl maleic anhydride modifier with a molecular weight of 25,000 (BPEI25K-CA) for promoting the toxicity of different chemotherapeutic drugs on non-resistant HepG2 cells. According to the method described in Embodiment 10, the concentration of BPEI25K-CA was 15 μg/mL, and the obtained data was shown in Table 1.
This embodiment is an in vitro cell experiment of the effect of a 3rd-generation dendritic polypropyleneimine-3-carboxy-2-pentenedioic acid modifier (G3 PPI-AA) for promoting the toxicity of different chemotherapeutic drugs on non-resistant HepG2 cells. According to the method described in Embodiment 10, the concentration of G3 PPI-AA was 20 μg/mL, and the obtained data was shown in Table 1.
This embodiment is an in vitro cell experiment of the effect of a 3rd-generation dendritic polypropyleneimine-2,3-dimethyl maleic anhydride modifier (G3 PPI-DMA) for promoting the toxicity of different chemotherapeutic drugs on non-resistant HepG2 cells. According to the method described in Embodiment 10, the concentration of G3 PPI-DMA was 20 μg/mL, and the obtained data was shown in Table 1 and FIG. 3.
This embodiment is an in vitro cell experiment of the effect of a branched polylysine-cyclohexene-1,2-dicarboxylic acid modifier having a molecular weight of 2,000 (BPLys2K-TPA) for promoting the toxicity of different chemotherapeutic drugs on non-resistant HepG2 cells. […]

The subject of a further series is HepG2/ADR cells. Description: Cytotoxicity experiment (MTS) of polymer and anti-cancer drug on HepG2/ADR cells. It is filed as cell-based. The settings on record: Homo sapiens, read-out: Cell Viability (%) Taxol. As for the experimental part: as §1, with “HepG2/ADR” for “HepG2”, “2 hours,” for “1 hour,”
as §1, with “suspension of HepG2/ADR cells diluted” for “suspension of HepG2 cells diluted”, “in 100 IA of a” for “in 100 μL of a”, “Celsius for 2 hours, and then” for “Celsius for 1 hour, and then”, “for absorbance. […]” for “for absorbance.”

Setting [1] is: HepG2, pH = 6.5, 5 μg/mL taxol alone (control).
Setting [2] is: HepG2, pH = 7.4, 5 μg/mL taxol alone (control).

“And” between values parts separate entries of the source, which are not always exact repeats. Identical values can stand only once. Like-named read-outs stand apart in the source and are kept apart here.

`COc1cccc2c1C(=O)c1c(O)c3c(c(O)c1C2=O)C[C@@](O)(C(=O)CO)C[C@@H]3O[C@H]1C[C@H](N)[C@H](O)[C@H](C)O1` [Doxorubicin, doxorubicin]: the viability at 4 µg/mL in the series on HepG2 cells (HepG2, read-out: Cell Viability (%) Doxorubicin, pH = 6.5, 4 μg/mL doxorubicin alone (control)) worked out at 77%; in the series with HepG2 cells (HepG2, read-out: Cell Viability (%) Doxorubicin, pH = 7.4, 4 μg/mL doxorubicin alone (control)), 72.9%. Further, the “Cell Viability (%) Doxorubicin” value in the series on HepG2 cells (pH = 6.5, 4 μg/mL doxorubicin alone (control)) was 78.59% and 77.13%; in the series with HepG2 cells (pH = 7.4, 4 μg/mL doxorubicin alone (control)) it was 70.75% and 73.82%.

For the compound `CC(=O)O[C@H]1C(=O)[C@@]2(C)[C@H]([C@H](OC(=O)c3ccccc3)[C@]3(O)C[C@H](OC(=O)[C@H](O)[C@@H](NC(=O)c4ccccc4)c4ccccc4)C(C)=C1C3(C)C)[C@]1(OC(C)=O)CO[C@@H]1C[C@@H]2O` [Taxol, taxol], the viability at 5 µg/mL in the series on HepG2/ADR cells (setting [1]) came out at 84.5%; with HepG2/ADR cells (setting [2]), 89.2%; in the series with HepG2 cells (setting [1]), 80.3%; in the series on HepG2 cells (setting [2]), 83.1%. Also, the “Cell Viability (%) Taxol” value with HepG2 cells (pH = 6.5, 5 μg/mL taxol alone (control)) is 78.66% and 76.08%; in the series with HepG2 cells (pH = 7.4, 5 μg/mL taxol alone (control)), 82.38% and 80.61%.
